The target of assay [1] is IDO (Homo sapiens, UniProt P14902). Nature of the assay: SKOV3 kynurenine cell-based assay (IDO induced by IFN-γ). Further details: IDO expression was induced in the SKOV3 cells by the addition of 500 ng/ml IFN-γ; endogenous in cells; host or cells: SKOV3 (human ovarian adenocarcinoma), induced with IFN-γ. The conditions noted are these: SKOV3 human ovarian adenocarcinoma cells, 500 ng/ml IFN-γ, 48 hours, 500 μM L-tryptophan; read-out: SKOV3 Kynurenine cell based assay pIC50 (converted). As for the experimental part: (§1) Exemplary compounds of the invention were prepared, and tested to determine their effect as TDO and/or IDO inhibitors. Two different assays were employed: 1. a cell-based assay for detecting the effect of test compounds on kynurenine production in two different cancer cell types. This assay utilised cancer cells which expressed either TDO or IDO and as such was used as a means of testing compound activity at these two enzymes in a cell-based context. 2. a TDO and IDO biochemical coupled assay which utilised recombinantly produced and purified TDO and IDO enzymes in combination with the enzyme formamidase. This coupled enzyme system allowed conversion of N-formylkynurenine produced by TDO or IDO activity to kynurenine which was then quantified by fluorescence following addition of Erhlich's Reagent The protocols for these are set out below.
Sequence of IDO (P14902 whole entry): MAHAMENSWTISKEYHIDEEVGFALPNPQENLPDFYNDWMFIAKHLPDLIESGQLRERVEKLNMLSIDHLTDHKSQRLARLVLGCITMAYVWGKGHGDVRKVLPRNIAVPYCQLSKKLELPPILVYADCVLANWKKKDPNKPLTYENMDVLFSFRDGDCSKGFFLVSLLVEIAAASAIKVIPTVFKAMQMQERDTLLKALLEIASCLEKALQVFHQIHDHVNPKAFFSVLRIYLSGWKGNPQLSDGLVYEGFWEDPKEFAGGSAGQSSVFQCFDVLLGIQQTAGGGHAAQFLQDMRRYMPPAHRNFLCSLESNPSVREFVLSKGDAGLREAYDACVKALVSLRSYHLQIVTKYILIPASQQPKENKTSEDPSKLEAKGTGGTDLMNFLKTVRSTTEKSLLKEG
(§2) Cell Based Assay for Detection of Kynurenine Produced by TDO and/or IDO
(§3) A172 (human glioblastoma) and SKOV3 (human ovarian adenocarcinoma) cells were seeded in a 96 well plate at 30,000 or 40,000 cells per well respectively in phenol red-free RPMI supplemented with 10% FCS, 2 mM L-glutamine and 500 μM L-tryptophan. IDO expression was induced in the SKOV3 cells by the addition of 500 ng/ml IFN-γ. Cells were incubated at 37° C. with or without the addition of test compound. After 48 hours, the cells were removed by centrifugation and Erhlich's reagent was added to the supernatant. The Erhlich's reagent was incubated for 5 minutes before the absorbance was read at 490 nm.

Assay [2] concerns the target TDO (Homo sapiens, UniProt P48775). Put plainly: A172 kynurenine cell-based assay. Also on record: This assay utilised cancer cells which expressed either TDO or IDO; endogenous in cells; host or cells: A172 (human glioblastoma). The conditions noted are these: A172 human glioblastoma cells, 48 hours, 500 μM L-tryptophan; read-out: A172 Kynurenine cell based assay pIC50 (converted). The method, then:
as §1, §2, §3

Sequence of TDO (P48775 whole entry): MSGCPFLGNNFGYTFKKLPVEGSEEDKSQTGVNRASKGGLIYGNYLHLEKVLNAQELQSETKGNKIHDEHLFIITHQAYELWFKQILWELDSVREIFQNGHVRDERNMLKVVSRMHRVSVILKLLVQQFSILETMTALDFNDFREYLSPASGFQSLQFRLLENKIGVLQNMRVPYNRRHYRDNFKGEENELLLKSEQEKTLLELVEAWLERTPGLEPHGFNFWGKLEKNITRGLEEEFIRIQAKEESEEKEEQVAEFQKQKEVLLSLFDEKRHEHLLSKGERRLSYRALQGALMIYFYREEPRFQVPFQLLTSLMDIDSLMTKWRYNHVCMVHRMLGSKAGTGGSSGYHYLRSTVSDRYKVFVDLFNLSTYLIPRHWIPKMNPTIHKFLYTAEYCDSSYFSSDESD

As to `CS(=O)(=O)N1CCC(Oc2cc(Cl)cc3[nH]ncc23)CC1` [Compound 159], the IC50 in assay [1] and in assay [2] was 3.24 to 31.6 µM in each case.
Consider `NS(=O)(=O)N1CCN(c2cc(Cl)cc3[nH]ncc23)CC1` [Compound 81], for which the IC50 in assay [1] was 3.24 to 31.6 µM; in assay [2], less than 3.16 µM.
`NC(=O)N1CCC(c2cc(Cl)cc3[nH]ncc23)CC1` [Compound 168]: the IC50 in assay [1] was 3.24 to 31.6 µM; in assay [2], less than 3.16 µM.
With `CC(O)C(=O)N1CCC(c2cc(Cl)cc3[nH]ncc23)CC1` (stereo not drawn) [Compound 177], the figures for the IC50 in assay [1] and in assay [2] were 3.24 to 31.6 µM and less than 3.16 µM, respectively.
For `CS(=O)(=O)N1CCN(c2cc(Cl)cc3[nH]nc(N)c23)CC1` [Compound 135], the IC50 was 3.24 to 31.6 µM in assay [1] and 32.4 to 100 µM in assay [2].
For `CCc1cc(N2CCN(S(C)(=O)=O)C(C)(C)C2)c2cn[nH]c2c1` [Compound 161], in that order: less than 3.16 µM and less than 3.16 µM.
`O=C1NCC2CN(c3cc(Cl)cc4[nH]ncc34)CCN12` (stereo not drawn) [Compound 88]: the figures for the IC50 in assay [1] and in assay [2] were 3.24 to 31.6 µM and less than 3.16 µM, respectively.
Turning to `C[C@@H]1CN(S(C)(=O)=O)CCN1c1cc(C(F)(F)F)cc2[nH]ncc12` [Compound 208], the IC50 in assay [1] was 3.24 to 31.6 µM; in assay [2], less than 3.16 µM.
On to `O=S(=O)(CC(F)(F)F)N1CCN(c2cccc3[nH]ncc23)CC1` [Compound 18], for which the IC50 in assay [1] is more than 100 µM; in assay [2] it was 32.4 to 100 µM.
`CC(C)C(=O)N1CCC(c2cc(Cl)cc3[nH]ncc23)CC1` [Compound 166]: the figures for the IC50 in assay [1] and in assay [2] were 32.4 to 100 µM and less than 3.16 µM, respectively.
For `O=C(N1CCN(c2cc(Cl)cc3[nH]ncc23)CC1)C1(O)CC1` [Compound 116] the same measures were 3.24 to 31.6 µM and less than 3.16 µM.
In the case of `CN1C(=O)NC2(CCN(c3cc(Cl)cc4[nH]ncc34)CC2)C1=O` [Compound 144], the IC50 in assay [1] and in assay [2] was less than 3.16 µM each time.
Take `CCCS(=O)(=O)N1CCN(c2cc(Cl)cc3[nH]ncc23)CC1` [Compound 63]: the IC50 in assay [1] is 3.24 to 31.6 µM; in assay [2], less than 3.16 µM.
For `CC(=O)N1CCN(c2cc(Cl)cc3[nH]ncc23)CC1(C)C` [Compound 46], in that order: less than 3.16 µM and less than 3.16 µM.
In the case of `CC1CN(c2cc(Cl)cc3[nH]ncc23)CCN1S(C)(=O)=O` (stereo not drawn) [Compound 73], the IC50 in assay [1] and in assay [2] was less than 3.16 µM throughout.
As for `C[C@@H]1CN(c2cc(Cl)cc3[nH]ncc23)C[C@H](C)N1S(C)(=O)=O` [Compound 134], the IC50 in assay [1] and in assay [2] was less than 3.16 µM throughout.
Take `CNS(=O)(=O)N1CCN(c2cccc3[nH]ncc23)CC1` [Compound 24]: the IC50 in assay [1] is 32.4 to 100 µM; in assay [2] it was 3.24 to 31.6 µM.
For the molecule `O=C(C1CC1)N1CCN(c2cc(Cl)cc3[nH]ncc23)CC1` [Compound 107], the IC50 in assay [1] was 3.24 to 31.6 µM; in assay [2] it was less than 3.16 µM.
In the case of `CC(=O)N1CCCN(c2cc(Cl)cc3[nH]ncc23)CC1` [Compound 71], the IC50 in assay [1] is 3.24 to 31.6 µM; in assay [2], less than 3.16 µM.
For `CC(C)c1cc(N2CCN(S(C)(=O)=O)C(C)(C)C2)c2cn[nH]c2c1` [Compound 145], in that order: 3.24 to 31.6 µM and less than 3.16 µM.
On to `C[C@@H]1CN(S(C)(=O)=O)CCN1c1cc(Cl)cc2[nH]ncc12` [Compound 197], for which the IC50 in assay [1] was 3.24 to 31.6 µM; in assay [2], less than 3.16 µM.
`CS(=O)(=O)N1CCN(c2cc(C(F)(F)F)cc3[nH]ncc23)c2ccccc21` [Compound 186]: the IC50 in assay [1] is 3.24 to 31.6 µM; in assay [2], more than 100 µM.
For `COCC(=O)N1CCC(c2cc(Cl)cc3[nH]ncc23)CC1` [Compound 176], the IC50 in assay [1] is 3.24 to 31.6 µM; in assay [2] it was less than 3.16 µM.
On to `C[C@@H]1CN(c2cc(Cl)cc3[nH]ncc23)C[C@@H](C)N1S(C)(=O)=O` [Compound 102], for which the IC50 in assay [1] was 3.24 to 31.6 µM; in assay [2], less than 3.16 µM.
Turning to `CC(C)C(=O)N1CCN(c2cc(Cl)cc3[nH]ncc23)CC1` [Compound 108], the results for the IC50 in assay [1] and in assay [2] were 3.24 to 31.6 µM and less than 3.16 µM, respectively.
For `CS(=O)(=O)N1CC=C(c2cc(Cl)cc3[nH]ncc23)CC1` [Compound 77] the same measures were 3.24 to 31.6 µM and less than 3.16 µM.
Take `CNC(=O)N1CCC(c2cc(Cl)cc3[nH]ncc23)CC1` [Compound 150]: the IC50 was 3.24 to 31.6 µM in assay [1] and less than 3.16 µM in assay [2].
As to `CN1CCN(c2cc(Cl)cc3[nH]ncc23)CC1(C)C` [Compound 164], the IC50 in assay [1] is 32.4 to 100 µM; in assay [2], less than 3.16 µM.
For `COc1cc(N2CCN(S(C)(=O)=O)CC2)c2cn[nH]c2c1` [Compound 69] the same measures were more than 100 µM and 3.24 to 31.6 µM.
Regarding `CN(C)S(=O)(=O)N1CCC(c2cc(Cl)cc3[nH]ncc23)CC1` [Compound 173], the IC50 is 3.24 to 31.6 µM in assay [1] and less than 3.16 µM in assay [2].
On to `CS(=O)(=O)N1CCCN(c2cc(Cl)cc3[nH]ncc23)CC1` [Compound 72], for which the IC50 in assay [1] is 3.24 to 31.6 µM; in assay [2], less than 3.16 µM.
On to `OCCOc1cc(Cl)cc2[nH]ncc12` [Compound 85], for which the IC50 in assay [1] is 32.4 to 100 µM; in assay [2], 3.24 to 31.6 µM.
Regarding `CC(=O)N1CCN(c2cc(F)cc3[nH]ncc23)CC1` [Compound 51], the IC50 in assay [1] is more than 100 µM; in assay [2], 3.24 to 31.6 µM.
For `CS(=O)(=O)N1CCCN(c2cccc3[nH]ncc23)CC1` [Compound 60], the IC50 in assay [1] is more than 100 µM; in assay [2], 3.24 to 31.6 µM.
For `O=S(=O)(C1CCCC1)N1CCN(c2cc(Cl)cc3[nH]ncc23)CC1` [Compound 57], the IC50 in assay [1] is 3.24 to 31.6 µM; in assay [2], less than 3.16 µM.
`O=S(=O)(c1ccccc1)N1CCC(c2cc(Cl)cc3[nH]ncc23)CC1` [Compound 138]: the IC50 in assay [1] was 3.24 to 31.6 µM; in assay [2] it was less than 3.16 µM.
For `CNCCNc1cc(Cl)cc2[nH]ncc12` [Compound 156], in that order: 32.4 to 100 µM and 3.24 to 31.6 µM.
For `CS(=O)(=O)N1CCN(c2cc(Br)cc3[nH]ncc23)CC1` [Compound 96], in that order: 3.24 to 31.6 µM and less than 3.16 µM.
For the molecule `CC(=O)N1CCC(c2cc(C(F)(F)F)cc3[nH]ncc23)CC1` [Compound 99], the values for the IC50 in assay [1] and in assay [2] were 3.24 to 31.6 µM and less than 3.16 µM, respectively.
For `C[C@H]1CN(S(C)(=O)=O)CCN1c1cc(Cl)cc2[nH]ncc12` [Compound 200], the IC50 was 3.24 to 31.6 µM in assay [1] and less than 3.16 µM in assay [2].
On to `O=S(=O)(C1CC1)N1CCC(c2cc(Cl)cc3[nH]ncc23)CC1` [Compound 188], for which the IC50 in assay [1] was 3.24 to 31.6 µM; in assay [2] it was less than 3.16 µM.
`CS(=O)(=O)N1CCN(c2cc(Cl)cc3[nH]ncc23)c2ccccc21` [Compound 151]: the IC50 in assay [1] was 3.24 to 31.6 µM; in assay [2], more than 100 µM.
As for `CC(=O)N1CCC(c2cc(C(F)(F)F)cc3[nH]ncc23)CC1(C)C` (stereo not drawn) [Compound 133], the IC50 in assay [1] and in assay [2] was less than 3.16 µM throughout.
In the case of `CC1(C)CN(c2cc(C3CC3)cc3[nH]ncc23)CCN1S(C)(=O)=O` [Compound 127], the figures for the IC50 in assay [1] and in assay [2] were 3.24 to 31.6 µM and less than 3.16 µM, respectively.
`COc1cc(N2CCN(C(C)=O)CC2)c2cn[nH]c2c1` [Compound 70]: the figures for the IC50 in assay [1] and in assay [2] were more than 100 µM and 3.24 to 31.6 µM, respectively.
Take `CCC(=O)N1CCN(c2cc(Cl)cc3[nH]ncc23)CC1` [Compound 109]: the IC50 in assay [1] was 3.24 to 31.6 µM; in assay [2], less than 3.16 µM.
Turning to `CC(=O)N1CCN(c2cc(C(C)C)cc3[nH]ncc23)CC1` [Compound 68], the IC50 in assay [1] was more than 100 µM; in assay [2] it was 3.24 to 31.6 µM.
Turning to `CC(=O)Nc1cccc2[nH]ncc12` [Compound 6], the IC50 in assay [1] is more than 100 µM; in assay [2] it was 32.4 to 100 µM.
For the molecule `CS(=O)(=O)NC1CCC(c2cc(Cl)cc3[nH]ncc23)CC1` (stereo not drawn) [Compound 203], the IC50 in assay [1] was 3.24 to 31.6 µM; in assay [2] it was less than 3.16 µM.
For `OC1CCCN(c2cc(Cl)cc3[nH]ncc23)C1` (stereo not drawn) [Compound 125], in that order: 32.4 to 100 µM and less than 3.16 µM.
On to `CS(=O)(=O)N1CCN(c2cc(Cl)cc3[nH]ncc23)CC12CC2` [Compound 94], for which the figures for the IC50 in assay [1] and in assay [2] were 3.24 to 31.6 µM and less than 3.16 µM, respectively.
Consider `CN1CC2CN(c3cccc4[nH]ncc34)CCN2C1=O` (stereo not drawn) [Compound 47], for which the IC50 in assay [1] is more than 100 µM; in assay [2], 3.24 to 31.6 µM.
In the case of `CC1(C)CC(c2cc(C(F)(F)F)cc3[nH]ncc23)CCN1S(C)(=O)=O` (stereo not drawn) [Compound 154], the values for the IC50 in assay [1] and in assay [2] were 3.24 to 31.6 µM and less than 3.16 µM, respectively.
For `CC(=O)N1CCN(c2cc(Cl)cc3[nH]ncc23)CC1C` (stereo not drawn) [Compound 74] the same measures were 3.24 to 31.6 µM and less than 3.16 µM.

(Values after US10590086B2, “Pharmaceutical compound” (IOmet Pharma Ltd., priority 2014, dated 2020).)
